# Assay results reported in patent US20110275559A1, “Long-Acting Y2 and/or Y4 Receptor Agonists” (Novo Nordisk A/S, priority 2008, published 2011).
# Marks after values point to notes of the source that are not given here.
# Legend:
# [1] = Adrian T. E. et al, Gut (1978), 19, pp 907-909; cited from earlier work
# in vivo = conditions: Göttingen, minipig, iv
# Procedure, shortened: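 Catheterised mini-pigs received compound i.v. at 10 nmol/kg in pH 4.0 phosphate/NaCl/tween vehicle, or alternatively i.v. or s.c. at 1–30 nmol/kg in pH 8.0 K2HPO4/tween. Stabilised plasma was sampled up to 13 days and assayed by LC-MS (LLOQ 2 nM). Half-life came from non-compartmental analysis of individual animal profiles.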
# lean C57BL/6 mice = test: Acute food intake in fasted lean mice (BioDAQ, fasting-induced refeeding); assay type: in vivo; conditions: for Mean cumulative food intake / Mean cumulative food intake [g]: Table 5, Study 6A
# Method: Acute food intake in mice: Lean C57BL male mice are obtained from Charles River, Japan. They are maintained on a 12:12 light:dark cycle (lights off at 10:00 AM, lights on at 10:00 PM), fed pelleted D12450B rodent diet (Research Diets, Inc., New Brunswick, N.J.), and allowed water ad libitum. The mice arrive at 7-8 weeks of age and are acclimatized in the BioDAQ system a minimum of two weeks prior to study. On the day of study, mice are 9-12 weeks old. They are fasted overnight (20-24 h) with free access to water. The day of the study, mice are dosed with s.c. injection (dose volume=10 mL/kg), returned to their cage, and pre-weighed food is immediately placed in the cage. […] When the mice eat the weight reduction of the content of the food-tray is registered. Data is registered each time there is a change in the weight of the individual food-tray. Cumulative food intake is calculated by subtracting the food weight at each time point from the starting food weight.
# Mice were administrated a single dose of the peptides (1 μmol/kg s.c.) 30 min before food return and cumulative food intake was measured over 24 h. […] One way ANOVA was carried for each time point out using the software Graph-Pad Prism, version 5.0. The statistical method used for the data in FIG. 1A was an unpaired t-test using the software Graph-Pad Prism, version 5.0. The statistical method used for the data in FIG. 1B and Table 4 was ANOVA, Dunnetts post hoc. Stars in FIGS. 1A and 1B indicate significance versus the vehicle group *) p<0.05, **) p<0.01, ***) p<0.001.
# Fasted lean C57BL/6 mice were administrated a single subcutaneous injection of vehicle or peptide approximately 30 min before food return and the cumulative food intake was measured subsequently. One way ANOVA was carried out for each time point using the software Graph-Pad Prism, version 5.0.
compound,measurement,setting,value
"CC[C@H](C)[C@H](NC(=O)[C@H](Cc1ccc(O)cc1)NC(=O)[C@H](CCCNC(=N)N)NC(=O)[C@H](CCCNC(=N)N)NC(=O)[C@H](CC(C)C)NC(=O)[C@H](CC(=O)O)NC(=O)[C@H](C)NC(=O)[C@H](C)NC(=O)[C@H](Cc1ccc(O)cc1)NC(=O)[C@H](CCC(N)=O)NC(=O)[C@H](C)NC(=O)[C@H](CCSC)NC(=O)[C@H](CCC(N)=O)NC(=O)[C@H](CCC(=O)O)NC(=O)[C@@H]1CCCN1C(=O)[C@@H](NC(=O)[C@H](C)NC(=O)[C@H](CC(N)=O)NC(=O)[C@H](CC(=O)O)NC(=O)CNC(=O)[C@@H]1CCCN1C(=O)[C@H](Cc1ccc(O)cc1)NC(=O)[C@@H](NC(=O)[C@@H]1CCCN1C(=O)[C@H](CCC(=O)O)NC(=O)[C@H](CC(C)C)NC(=O)[C@@H]1CCCN1C(=O)[C@H](C)N)C(C)C)[C@@H](C)O)C(=O)N[C@@H](CC(N)=O)C(=O)N[C@@H](CCSC)C(=O)N[C@@H](CC(C)C)C(=O)N[C@H](C(=O)N[C@@H](CCCNC(=N)N)C(=O)N1CCC[C@H]1C(=O)N[C@@H](CCCNC(=N)N)C(=O)N[C@@H](Cc1ccc(O)cc1)C(N)=O)[C@@H](C)O [SEQ ID NO: 2, hPP(1-36)]",half-life reported in man,[1],7 min
same,half-life,in vivo; 15 nmol/kg,2.1 min
same,half-life,in vivo; 45 nmol/kg,1.86 min
same,time after administration at which the effect in reducing food intake has disappeared,"lean C57BL/6 mice; Study 6A, fasted lean C57BL/6 mice, 1.0 μmol/kg s.c.",12 h
same,Mean cumulative food intake,"lean C57BL/6 mice; fasted lean C57BL/6 mice, single 1.0 μmol/kg s.c., 4 hours after injection, vehicle 1.51",1.18 g
same,Mean cumulative food intake [g],"lean C57BL/6 mice; mice, 1.0 μmol/kg s.c., 6 hours after injection, vehicle 2.04",1.51** g
same,Mean cumulative food intake [g],"lean C57BL/6 mice; mice, 1.0 μmol/kg s.c., 8 hours after injection, vehicle 2.61",1.98** g
same,Mean cumulative food intake,"lean C57BL/6 mice; mice, 1.0 μmol/kg s.c., 12 hours after injection, vehicle 3.49",3.19 g
same,Mean cumulative food intake,"lean C57BL/6 mice; mice, 1.0 μmol/kg s.c., 24 hours after injection, vehicle 4.35",3.87 g
same,Mean cumulative food intake,"lean C57BL/6 mice; mice, 1.0 μmol/kg s.c., 36 hours after injection, vehicle 8.41",7.93 g
same,Mean cumulative food intake,"lean C57BL/6 mice; mice, 1.0 μmol/kg s.c., 48 hours after injection, vehicle 8.87",8.56 g
